MIC data for one molecule are collected here from US8012967B2, “Minor groove binders” (University of Strathclyde, priority 2006, dated 2011).

Read-outs that look alike come from different tables or passages of the source.

Assay [1] concerns Staphylococcus aureus Strain 1 (BSAC04(1)) (Clinical isolate from Glasgow Royal Infirmary). As to the kind of experiment: MIC, Staphylococcus aureus Strain 1. Format: cell-based. As to conditions: Staphylococcus aureus, read-out: Minimum inhibitory concentrations (MICs), S aureus 1. Summed up: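 Broth microdilution in Mueller-Hinton Broth: test sample at 200 μg/ml working concentration, serially doubled across rows, incubated at 37° C. MIC taken from the colour pattern, with sterility and growth controls included.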

Assay [2] deals with Candida albicans (NCPF3179). As to the kind of experiment: MIC, Candida albicans. Format: cell-based. As to conditions: Candida albicans, NCPF3179, read-out: Minimum inhibitory concentrations (MICs), C. albicans.
The mark [3] stands for this setting: value in parentheses, na = not active.

On to `Cn1cc(NC(=O)c2cc(NC(=O)c3ccc(/C=C/c4cnc5ccccc5c4)cc3)cn2C)cc1C(=O)NCCN1CCOCC1` [Example 2, 1-Methyl-4-({[1-methyl-4-({4-[(E)-2-(3-quinolinyl)ethenyl]benzoyl}amino)-1H-pyrrol-2-yl]carbonyl}amino)-N-[2-(4-morpholinyl)ethyl]-1H-pyrrole-2-carboxamide], for which the MIC in assay [1] (setting [3]) is 0.12 mg/L; in assay [1] (value outside parentheses), 0.16 µM; in assay [2] (setting [3]), 25 mg/L; in assay [2] (value outside parentheses), 33.5 µM.
